Assay [1] deals with T1, α1b-AR (Homo sapiens, UniProt P35368).
T1 construct: expressed in transfected cells; host or cells: COS cells, pcDNA3 vector, transient DEAE-dextran transfection
T1 sequence (P35368 1-520): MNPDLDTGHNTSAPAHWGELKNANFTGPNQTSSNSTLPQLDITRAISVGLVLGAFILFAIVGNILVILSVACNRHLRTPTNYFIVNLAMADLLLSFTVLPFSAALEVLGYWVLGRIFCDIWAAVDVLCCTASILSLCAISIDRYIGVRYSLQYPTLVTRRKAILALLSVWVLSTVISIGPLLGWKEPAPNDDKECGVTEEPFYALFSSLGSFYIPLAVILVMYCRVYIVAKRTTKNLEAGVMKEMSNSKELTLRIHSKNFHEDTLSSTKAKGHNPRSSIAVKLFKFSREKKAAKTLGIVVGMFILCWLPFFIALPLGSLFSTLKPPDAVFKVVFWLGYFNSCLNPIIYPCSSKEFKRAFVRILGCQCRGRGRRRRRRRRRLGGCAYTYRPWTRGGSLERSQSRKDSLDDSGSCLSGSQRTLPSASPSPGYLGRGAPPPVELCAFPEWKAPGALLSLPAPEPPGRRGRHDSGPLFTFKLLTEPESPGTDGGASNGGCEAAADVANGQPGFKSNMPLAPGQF
The experiment in a line: radioligand ([125I]-HEAT) receptor binding assay, COS cell membranes expressing cloned receptor. The conditions noted are these: [125I]-HEAT 50 pM, 1 hour room temperature. The text has this:
(§1) The first assay tested the ability of compounds of Formula I to bind to membrane bound receptors α1a-AR, α1b-AR and α1d-AR.
(§2) The DNA sequences of the three cloned human α1-AR subtypes have been published. […] We used published DNA sequence information to design primers for use in RT-PCR amplification of each subtype to obtain cloned cDNAs. Human poly A+ RNA was obtained from commercially available sources and included hippocampus and prostate samples, sources which have been cited in the literature. For the primary screen a radioligand binding assay was used which employed membrane preparations from cells expressing the individual cloned receptor cDNAs. Radiolabeled ligands with binding activity on all three subtypes (non-selective) are commercially available ([125I]-HEAT, [3H]-prazosin). Each α1 receptor subtype was cloned from poly A+ RNA by the standard method of reverse transcription-polymerase chain reaction (RT-PCR). The following sources of polyA+ RNA were used for the cloning of the α1 receptor subtypes: α1a-AR, human hippocampus and prostate, α1b-AR, human hippocampus, α1d-AR, human hippocampus. The resulting cDNAs were cloned into the pcDNA3 mammalian expression vector (Invitrogen Corp., San Diego Calif.). Each DNA was sequenced for verification and to detect any possible mutations introduced during the amplification process. Any deviation in sequence from the published consensus for each receptor subtype was corrected by site-directed mutagenesis.
(§3) The three α1-AR subtypes (a, b, d) were transfected into COS cells using a standard DEAE-dextran procedure with a chloroquine shock. In this procedure, each tissue culture dish (100 mm) was inoculated with 3.5×10^6 cells and transfected with 10 μg of DNA. Approximately 72 hours post-transfection, the cells were harvested and COS membranes were prepared. Transfected COS cells from 25 plates (100 mm) were scraped and suspended in 15 mL of TE buffer (50 mM Tris-HCl, 5 mM EDTA, pH 7.4). The suspension was disrupted with a homogenizer. It was then centrifuged at 1000× g for 10 minutes at 4° C. The supernatant was centrifuged at 34,500× g for 20 minutes at 4° C. The pellet was resuspended in 5 mL TNE buffer (50 mM Tris-HCl, 5 mM EDTA, 150 mM NaCl, pH 7.4). The resulting membrane preparation was aliquoted and stored at −70° C. The protein concentration was determined following membrane solubilization with TritonX-100.
(§4) The ability of each compound to bind to each of the α1-AR subtypes was assessed in a receptor binding assay. [125I]-HEAT, a non-selective α1-AR ligand, was used as the radiolabeled ligand. Each well of a 96-well plate received: 140 μL TNE, […] [125I]-HEAT diluted in TNE (50,000 cpm; final concentration 50 pM), 10 μL test compound diluted in DMSO (final concentration 1 pM-10 μM), […] COS cell membrane preparation expressing one of the three α1-AR subtypes (0.05-0.2 mg membrane protein). The plate was incubated for 1 hour at room temperature and the reaction mixtures were filtered through a Packard GF/C Unifilter filter plate. The filter plate was dried for 1 hour in a vacuum oven. Scintillation fluid ([…]) was added to each well, and the filter plate was counted in a Packard Topcount scintillation counter. Data was analyzed using GraphPad Prism software.
(§5) Tables A through D list the IC50 values expressed in nanomolar concentration for select compounds of the invention in all receptor subtypes.

Assay [2] addresses T2, α1d-AR (Homo sapiens, UniProt P25100).
T2 construct: expressed in transfected cells; host or cells: COS cells, pcDNA3 vector, transient DEAE-dextran transfection
T2 sequence (P25100 1-572): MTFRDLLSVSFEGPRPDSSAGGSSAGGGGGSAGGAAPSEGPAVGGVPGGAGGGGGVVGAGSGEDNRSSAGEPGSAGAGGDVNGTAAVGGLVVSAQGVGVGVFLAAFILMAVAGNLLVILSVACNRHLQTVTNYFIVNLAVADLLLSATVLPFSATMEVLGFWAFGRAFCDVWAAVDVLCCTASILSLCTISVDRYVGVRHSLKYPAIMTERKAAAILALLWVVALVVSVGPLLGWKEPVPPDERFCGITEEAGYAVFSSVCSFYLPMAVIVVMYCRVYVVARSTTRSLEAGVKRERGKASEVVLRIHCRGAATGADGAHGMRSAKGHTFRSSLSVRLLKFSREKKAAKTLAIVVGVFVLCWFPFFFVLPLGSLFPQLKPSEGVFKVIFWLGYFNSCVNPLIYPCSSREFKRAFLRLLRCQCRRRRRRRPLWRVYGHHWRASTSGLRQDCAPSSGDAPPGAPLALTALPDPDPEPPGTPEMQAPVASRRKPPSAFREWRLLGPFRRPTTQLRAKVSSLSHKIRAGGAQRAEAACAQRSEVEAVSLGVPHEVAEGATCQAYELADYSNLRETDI
Described as above. The conditions noted are these: [125I]-HEAT 50 pM, 1 hour room temperature.
Text: as §1, §2, §3, §4, §5

The subject of assay [3] is rat aorta tissues. The assay can be described thus: norepinephrine-induced contractile response of rat aortic rings. The class given is cell-based. The conditions noted are these: norepinephrine-induced contraction, Long Evans rat aortic rings, 2 grams tension, 37° C.; read-out: IC50 of inhibition of contractile response in aortic tissue. The text has this:
(§6) The contractile responses of rat prostatic tissue and rat aorta tissues were examined in the presence and absence of antagonist compounds. As an indication of the selectivity of antagonism, test compound effects on vascular smooth muscle contractility (α1b-AR and α1d-AR) were compared to the effects on prostatic smooth muscle (α1a-AR). Strips of prostatic tissue and aortic rings were obtained from Long Evans derived male rats weighing 275 grams and sacrificed by cervical dislocation. The prostate tissue was placed under 1 gram tension in a 10 ml bath containing phosphate buffered saline pH 7.4 at 32° C. and isometric tension was measured with force transducers. The aortic tissue was placed under 2 grams tension in a 10 ml bath containing phosphate buffered saline pH 7.4 at 37° C.

In assay [4] the test system is rat prostatic tissue. The assay can be described thus: norepinephrine-induced contractile response of rat prostatic tissue strips. The conditions noted are these: norepinephrine-induced contraction, Long Evans rat prostatic strips, 1 gram tension, 32° C.; read-out: IC50 of inhibition of contractile response in prostate tissue. It counts as cell-based.
Text: as §6

Where only a bound is given, the exact number is not on record here.

What is called IC50 is the concentration that gives 50% inhibition.

Regarding `COc1ccc(N2C(=O)c3ccc(C(=O)NCCCN4CCN(c5ccccc5OC(C)C)CC4)cc3C2=O)cc1` [Compound 45], the IC50 was found to be 361 nM in assay [1], 16 nM in assay [2], 3300 nM in assay [3] and 40 nM in assay [4].
For `CC(C)Oc1ccccc1N1CCN(C[C@@H](O)CNC(=O)c2ccc3c(c2)C(=O)N(c2cccc(F)c2)C3=O)CC1` [Compound 9] the same measures were above 2000 nM, 190 nM, 6500 nM and 230 nM.
The like results for `CC(C)Oc1ccccc1N1CCN(CCCNC(=O)c2ccc3c(c2)C(=O)N(c2cccc(F)c2)C3=O)CC1` [Compound 6] were, in that order, 482 nM, 22 nM, 2800 nM and 130 nM.
In the case of `CC(C)Oc1ccccc1N1CCN(CC(O)CNC(=O)c2ccc3c(c2)C(=O)N(c2cccc(F)c2)C3=O)CC1` (racemic) [Compound 4], the IC50 came out at 1830 nM in assay [1], 76 nM in assay [2], 63200 nM in assay [3] and 640 nM in assay [4].
The like results for `CC(C)Oc1ccccc1N1CCN(C[C@@H](O)CNC(=O)c2ccc3c(c2)C(=O)N(c2ccc(N(C)C)cc2)C3=O)CC1` [Compound 21, (S)-2-[4-(dimethylamino)phenyl]-2,3-dihydro-N-[2-hydroxy-3-[4-[2-(1-methylethoxy)phenyl]-1-piperazinyl]propyl]-1,3-dioxo-1H-isoindole-5-carboxamide] were, in that order, above 2000 nM, 52 nM, 22400 nM and 810 nM.
